Tests used:
Format in all cases: in vivo, mouse
Fas-Lpr/P23H mice [1] = assay: Retinal histology and IHC staining (DAPI, m-opsin, rhodopsin); conditions: HCQ versus untreated
Method: (§1) This study was conducted in the Lpr/P23H mouse line, a Fas-deficient mouse line that is also a model of retinitis pigmentosa. Hydroxychloroquine (HCQ) was given in the drinking water at 1.2 mg/ml starting at 21 days post-natal (P21) to reduce autophagy flux (FIG. 1). Photoreceptor death was assessed by Terminal deoxynucleotidyl transferase (TdT) dUTP Nick-End Labeling (TUNEL) cell counts. Retinal structure was examined by histology and optical coherence tomography (OCT) analysis. Electroretinogram (ERG) recording and immunohistochemistry (IHC) staining of rhodopsin and m-opsin were performed to evaluate the retinal function. Transcript levels of inflammatory cytokines, CCL-2 and CCL-3, were analyzed by rt-PCR.

CCL-2 = assay: Transcript level of inflammatory cytokine CCL-2 in retina by rt-PCR; conditions: Fas-Lpr/P23H mice, HCQ 1.2 mg/ml in drinking water from P21, versus untreated mice
Method: as §1

Fas-Lpr/P23H mice [2] = assay: TUNEL cell counts for photoreceptor death in retina; conditions: HCQ 1.2 mg/ml in drinking water from P21, versus untreated mice, FIG. 2B
Method: as §1

Fas-Lpr/P23H mice [3] = assay: Electroretinogram (ERG) recording, Fas-deficient retinitis pigmentosa model; conditions: 3-month and 4-month old Fas-LPR/P23H mice; HCQ versus untreated
Method: as §1
Photoreceptor function was assessed using electroretinograms (ERGs).

Fas-Lpr/P23H mice [4] = assay: ONL thickness by optical coherence tomography (OCT), Fas-deficient retinitis pigmentosa model; conditions: 3- and 4-months old, OCT at 250 and 500 μm from the optic nerve, inferior and superior retina, HCQ in drinking water versus untreated
Method: as §1
A proxy for retinal cell death is […] (ONL) thickness, with thicker ONLs correlating to less cell death.

CCL-3 = assay: Transcript level of inflammatory cytokine CCL-3 in retina by rt-PCR; conditions: Fas-Lpr/P23H mice, HCQ 1.2 mg/ml in drinking water from P21, versus untreated mice
Method: as §1

CCN(CCO)CCCC(C)Nc1ccnc2cc(Cl)ccc12 (centres unmarked) [HCQ, Hydroxychloroquine]
photoreceptor survival (histological images) (Fas-Lpr/P23H mice [1]; 3-month and 4-month old Fas-LPR/P23H mice, FIG. 6): greater photoreceptor survival
survival of cell bodies (DAPI), cones (m-opsin) and rods (rhodopsin), IHC images (Fas-Lpr/P23H mice [1]; 3-month and 4-month old Fas-Lpr/P23H mice, FIG. 7A, 7B): greater survival of cell bodies, cones, and rods
production of inflammatory cytokine CCL-2 (CCL-2): lowered production
TUNEL-positive cell counts in the retina (Fas-Lpr/P23H mice [2]): statistically significantly fewer
scotopic ERG a-wave amplitude (Fas-Lpr/P23H mice [3]): significantly greater amplitude
scotopic ERG b-wave amplitude (Fas-Lpr/P23H mice [3]): significantly greater amplitude
optic nerve layer (ONL) thickness (Fas-Lpr/P23H mice [4]): significantly greater ONL thickness
production of inflammatory cytokine CCL-3 (CCL-3): lowered production
